Laboratory results reported in US6696495B2, “Treatment of disorders secondary to organic impairments” (Snowden Pharmaceuticals, LLC, priority 1998, dated 2004).

Key:
[1] = test system: Tourette's Tics, Asocial Behavior, and Relief of Hyposexuality; conditions: for response to other medications: before sibutramine
[2] = test system: Severe Atypical Psychosis; experiment: Case history 1, Sibutramine Patient No. 97; type: in vivo, human
[3] = test system: Non-Tourette's tics, obsessive-compulsive rituals, and attention deficit hyperactive disorder (ADHD); conditions: before sibutramine
[4] = test system: Asocial Behavior, Violence, and Hyposexuality; experiment: Case history 10, Sibutramine Patient No. 54; type: in vivo, human; conditions: before sibutramine
[5] = test system: Tourette's Disease Tics, Violence, and ADHD; experiment: Case history 8, Sibutramine Patient No. 47; type: in vivo, human
[6] = test system: Sexual Function, ADD, and Rage Outbursts; experiment: Case history 3, Sibutramine Patient No. 100; type: in vivo, human
[7] = test system: Severe Post-Traumatic Stress Reaction; conditions: before sibutramine
Experimental: Finally, this patient was taken off of fluoxetine 20 mg when sibutramine treatment was initiated.

[8] = over six years before sibutramine
[9] = mood swings, cognitive, anger, sexual problems, before sibutramine

In the case of CN1CCN(C2=Nc3cc(Cl)ccc3Nc3ccccc32)CC1 [Clozapine], the “fall of IQ” value ([1]; human, in vivo) is reported as 30 points.
With NC12CC3CC(CC(C3)C1)C2 [amantadine] the “response of psychosis symptoms to other medications” value (shortened to “response of psychosis symptoms”) ([2]; treatments before sibutramine) was “without success”.
In the case of CC(N)Cc1ccccc1 (centres unmarked) [amphetamine], the “response to other medications” value [3] is reported as “helped their hyperactivity and OCD symptoms in part”.
In the case of OC(O)C(Cl)(Cl)Cl [chloral hydrate], the “response to other medications” value [4] is reported as “without any changes in their speech or mode of communication”.
For CN(C)CCCN1c2ccccc2CCc2ccc(Cl)cc21 [clomipramine], the “response to other medications” value [5, 8] was “without any good results” and the “response to other medications” value [1] was “without success”.
Clc1cccc(Cl)c1N=C1NCCN1 [clonidine] was tested, and the “response to other medications” value [5, 8] was “without any good results”.
In the case of CNCCCN1c2ccccc2CCc2ccccc21 [desipramine], the “response to other medications” value [6, 9] is reported as “not helpful” and the “response to other medications” value [5, 8] is reported as “without any good results”.
For CCN[C@@H](C)Cc1cccc(C(F)(F)F)c1 [dextrofenfluramine], the “response to other medications” value [1] was “without success”.
In the case of NC(=O)OCC(COC(N)=O)c1ccccc1 [felbamate], the “response to other medications” value [5, 8] is reported as “without any good results” and the “response to other medications” value [1] is reported as “without success”.
CCNC(C)Cc1cccc(C(F)(F)F)c1 (centres unmarked) [fenfluramine] was tested, and the “response to other medications” value [6, 9] was “not helpful”, the “response to other medications” value [5, 8] was “without any good results” and the “response to other medications” value [4] was “without any changes in their speech or mode of communication”. For the same compound, the “response of PTSD symptoms to other medications” value (from here on “response of PTSD symptoms”) [7] was “unsuccessful” and the “response to other medications” value [1] was “without success”.
In the case of OCCN1CCN(CCCN2c3ccccc3Sc3ccc(C(F)(F)F)cc32)CC1 [fluphenazine], the “response to other medications” value [1] is reported as “without success”.
In the case of COCCCC/C(=N\OCCN)c1ccc(C(F)(F)F)cc1 [fluvoxamine], the “response to other medications” value [1] is reported as “without success” and the “response to other medications” value [3] is reported as “helped their hyperactivity and OCD symptoms in part”.
In the case of OCCOCCN1CCN(C(c2ccccc2)c2ccc(Cl)cc2)CC1 (centres unmarked) [hydroxyzine], the “response to other medications” value [5, 8] is reported as “without any good results”.
With O=C1Nc2ccc(Cl)cc2C(c2ccccc2Cl)=NC1O (centres unmarked) [lorazepam] the “response of psychosis symptoms” value ([2]; treatments before sibutramine) was “without success”.
With CC(C)(C)NCC(O)COc1cccc2c1CC(O)C(O)C2 (centres unmarked) [nadolol] the “response to other medications” value [4] was “without any changes in their speech or mode of communication”.
For CNCCC=C1c2ccccc2CCc2ccccc21 [nortriptyline], the “response to other medications” value ([6]; human, in vivo) was “unsuccessful”.
In the case of NC(=O)N1c2ccccc2CC(=O)c2ccccc21 [oxcarbazepine], the “response of PTSD symptoms” value [7] is reported as “unsuccessful”.
For Fc1ccc([C@@H]2CCNC[C@H]2COc2ccc3c(c2)OCO3)cc1 [paroxetine], the “response of psychosis symptoms” value ([2]; treatments before sibutramine) was “without success”.
NC1=NC(=O)C(c2ccccc2)O1 (centres unmarked) [pemoline] was tested, and the “response of PTSD symptoms” value [7] was “unsuccessful”.
For CC(C)(N)Cc1ccccc1 [phenteramine], the “response to other medications” value [6, 9] was “helped them lose a small amount of weight but did not affect their other problems”.
For O=C1NC(=O)C(c2ccccc2)(c2ccccc2)N1 [phenytoin], the “response to other medications” value [5, 8] was “without any good results” and the “response of PTSD symptoms” value [7] was “unsuccessful”.
Cc1nc2n(c(=O)c1CCN1CCC(c3noc4cc(F)ccc34)CC1)CCCC2 [risperidone] was tested, and the “response of psychosis symptoms” value ([2]; human, in vivo) was “without success” and the “response to other medications” value ([5]; human, in vivo) was “without any good results”.
In the case of CCCN(CCC)CCc1cccc2c1CC(=O)N2 [ropinirole], the “response to other medications” value [3] is reported as “unsuccessful”.
Nc1c2c(nc3ccccc13)CCCC2 [tacrine] was tested, and the “response to other medications” value [5, 8] was “without any good results” and the “response to other medications” value [1] was “without success”.
With CSc1ccc2c(c1)N(CCC1CCCCN1C)c1ccccc1S2 (centres unmarked) [thioridazine] the “response to other medications” value [4] was “without any changes in their speech or mode of communication”.
For N[C@@H](Cc1cc(I)c(Oc2cc(I)c(O)c(I)c2)c(I)c1)C(=O)O [thyroxine], the “response to other medications” value [6, 9] was “not helpful”.
CN1CCN(CCCN2c3ccccc3Sc3ccc(C(F)(F)F)cc32)CC1 [trifluoperazine] was tested, and the “response of psychosis symptoms” value ([2]; treatments before sibutramine) was “without success”.
